Laboratory results from ChEMBL document CHEMBL6078697, “Synthesis and Evaluation of 9-epi-Koshidacin B as Selective Inhibitor of Histone Deacetylase 1” (J Nat Prod, 2024).

Key:
Histone deacetylase 1 [1] = target: T1, Histone deacetylase 1 (Homo sapiens, UniProt Q13547); assay: Binding affinity to HDAC1 (unknown origin) assessed as inhibition constant
Histone deacetylase 1 [2] = target: T1, Histone deacetylase 1; assay: Inhibition of HDAC1 (unknown origin) using RHKK(Ac)AMC as substrate
[3] = target: T2, Protein deacetylase HDAC6 (Homo sapiens, UniProt Q9UBN7); assay: Inhibition of HDAC6 (unknown origin) using RHKK(Ac)AMC as substrate
T2 sequence (Q9UBN7 whole entry): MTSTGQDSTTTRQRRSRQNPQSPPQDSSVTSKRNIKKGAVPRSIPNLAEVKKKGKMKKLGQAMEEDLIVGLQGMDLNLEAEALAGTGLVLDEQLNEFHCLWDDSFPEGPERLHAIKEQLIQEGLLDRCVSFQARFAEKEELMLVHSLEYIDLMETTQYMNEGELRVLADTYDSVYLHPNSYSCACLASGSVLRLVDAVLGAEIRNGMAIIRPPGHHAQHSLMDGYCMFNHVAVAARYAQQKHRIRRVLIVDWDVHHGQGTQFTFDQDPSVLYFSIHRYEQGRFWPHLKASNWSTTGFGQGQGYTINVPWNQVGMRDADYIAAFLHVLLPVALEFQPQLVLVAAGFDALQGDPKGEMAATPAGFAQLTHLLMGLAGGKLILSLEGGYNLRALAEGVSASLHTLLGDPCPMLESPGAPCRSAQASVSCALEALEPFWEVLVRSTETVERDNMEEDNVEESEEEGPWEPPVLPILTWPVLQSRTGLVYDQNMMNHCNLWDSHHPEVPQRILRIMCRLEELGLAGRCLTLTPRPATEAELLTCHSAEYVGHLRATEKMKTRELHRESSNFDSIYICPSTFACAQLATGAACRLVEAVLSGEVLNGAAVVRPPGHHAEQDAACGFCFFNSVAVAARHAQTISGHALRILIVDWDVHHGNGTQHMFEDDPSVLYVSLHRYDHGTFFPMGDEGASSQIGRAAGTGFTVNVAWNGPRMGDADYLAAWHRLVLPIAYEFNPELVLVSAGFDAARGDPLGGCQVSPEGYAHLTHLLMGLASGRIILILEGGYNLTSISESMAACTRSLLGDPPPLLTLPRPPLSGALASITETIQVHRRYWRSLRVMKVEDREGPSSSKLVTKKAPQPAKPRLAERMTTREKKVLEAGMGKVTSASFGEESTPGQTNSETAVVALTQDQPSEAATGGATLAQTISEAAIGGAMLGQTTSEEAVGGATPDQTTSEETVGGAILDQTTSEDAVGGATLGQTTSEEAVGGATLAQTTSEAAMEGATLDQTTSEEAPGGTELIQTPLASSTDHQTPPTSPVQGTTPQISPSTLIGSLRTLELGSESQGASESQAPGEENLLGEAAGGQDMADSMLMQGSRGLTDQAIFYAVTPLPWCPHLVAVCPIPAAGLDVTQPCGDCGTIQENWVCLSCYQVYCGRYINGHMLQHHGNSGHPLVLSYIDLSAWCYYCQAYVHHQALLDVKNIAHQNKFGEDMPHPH

Histone deacetylase 4 = Histone deacetylase 4 (Homo sapiens, UniProt P56524); assay: Inhibition of HDAC4 (unknown origin) using trifluoroacetyl lysine as substrate
Chain of Histone deacetylase 4 (P56524 whole entry): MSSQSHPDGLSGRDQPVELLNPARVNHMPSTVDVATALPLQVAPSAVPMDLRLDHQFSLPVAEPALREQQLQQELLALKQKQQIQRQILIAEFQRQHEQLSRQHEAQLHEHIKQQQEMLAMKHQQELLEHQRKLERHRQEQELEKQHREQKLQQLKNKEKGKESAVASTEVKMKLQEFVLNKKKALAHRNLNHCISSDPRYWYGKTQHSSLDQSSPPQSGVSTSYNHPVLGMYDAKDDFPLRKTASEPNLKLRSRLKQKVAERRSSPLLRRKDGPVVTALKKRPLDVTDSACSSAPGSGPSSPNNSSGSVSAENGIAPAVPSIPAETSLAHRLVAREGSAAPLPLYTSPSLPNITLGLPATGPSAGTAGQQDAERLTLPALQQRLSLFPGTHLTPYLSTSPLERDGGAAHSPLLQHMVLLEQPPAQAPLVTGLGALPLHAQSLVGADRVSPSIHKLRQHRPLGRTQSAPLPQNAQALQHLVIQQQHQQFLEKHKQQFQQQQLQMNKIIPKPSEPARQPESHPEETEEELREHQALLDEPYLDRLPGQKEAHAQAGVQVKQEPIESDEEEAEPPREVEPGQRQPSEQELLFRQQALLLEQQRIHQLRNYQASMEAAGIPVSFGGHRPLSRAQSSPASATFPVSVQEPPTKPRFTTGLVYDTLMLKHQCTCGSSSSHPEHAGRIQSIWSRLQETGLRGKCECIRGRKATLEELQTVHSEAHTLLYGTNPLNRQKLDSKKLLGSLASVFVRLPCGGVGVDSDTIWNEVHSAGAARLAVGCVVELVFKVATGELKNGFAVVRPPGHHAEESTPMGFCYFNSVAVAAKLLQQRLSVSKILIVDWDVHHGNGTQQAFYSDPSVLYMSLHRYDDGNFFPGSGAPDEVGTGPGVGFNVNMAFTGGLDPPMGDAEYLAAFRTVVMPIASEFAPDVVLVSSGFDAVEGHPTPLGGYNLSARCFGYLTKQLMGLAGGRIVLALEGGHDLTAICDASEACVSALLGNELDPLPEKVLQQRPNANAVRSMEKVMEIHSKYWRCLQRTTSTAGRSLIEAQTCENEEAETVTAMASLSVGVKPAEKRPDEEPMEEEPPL

[4] = Selectivity ratio of IC50 for inhibition of HDAC4 (unknown origin) to IC50 for inhibition of HDAC1 (unknown origin)
[5] = Selectivity ratio of IC50 for inhibition of HDAC6 (unknown origin) to IC50 for inhibition of HDAC1 (unknown origin)
Histone deacetylase 1 [6] = target: T1, Histone deacetylase 1; assay: Inhibition of HDAC1 (unknown origin)

T1 sequence (Q13547 whole entry): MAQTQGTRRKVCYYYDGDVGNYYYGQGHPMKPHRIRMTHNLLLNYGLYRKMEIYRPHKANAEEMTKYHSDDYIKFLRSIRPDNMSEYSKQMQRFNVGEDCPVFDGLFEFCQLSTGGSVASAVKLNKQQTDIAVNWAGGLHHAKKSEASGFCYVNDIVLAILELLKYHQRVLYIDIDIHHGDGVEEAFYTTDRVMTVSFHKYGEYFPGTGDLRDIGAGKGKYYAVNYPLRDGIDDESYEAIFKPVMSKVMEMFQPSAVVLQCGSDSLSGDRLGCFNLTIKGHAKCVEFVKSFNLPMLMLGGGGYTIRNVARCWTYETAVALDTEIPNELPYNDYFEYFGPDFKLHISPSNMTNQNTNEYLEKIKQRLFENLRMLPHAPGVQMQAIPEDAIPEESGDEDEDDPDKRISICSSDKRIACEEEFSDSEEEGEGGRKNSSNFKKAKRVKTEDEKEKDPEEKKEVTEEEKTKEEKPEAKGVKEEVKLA

## CC1(C)NC(=O)[C@H](CCCCCC(=O)[C@H](O)CO)NC(=O)[C@H]2CCCN2C(=O)[C@H](Cc2ccccc2)NC1=O (stereo in doubt; form 1)
Histone deacetylase 1 [1]
  Ki: 5.65 µM

## CC1(C)NC(=O)[C@H](CCCCCC(=O)[C@H](O)CO)NC(=O)[C@H]2CCCN2C(=O)[C@H](Cc2ccccc2)NC1=O [listing 1 of 2 here]
Histone deacetylase 1 [2]
  IC50: 145 nM
[3]
  IC50: 319 µM
Histone deacetylase 4
  IC50: 1 mM

## CC1(C)NC(=O)[C@H](CCCCCC(=O)[C@H](O)CO)NC(=O)[C@H]2CCCN2C(=O)[C@H](Cc2ccccc2)NC1=O [listing 2 of 2 here]
[4]
  Ratio IC50: 7000
[5]
  Ratio IC50: 2200

## CC1(C)NC(=O)[C@H](CCCCCC(=O)[C@@H](O)CO)NC(=O)[C@H]2CCCN2C(=O)[C@H](Cc2ccccc2)NC1=O (stereo in doubt; form 1)
Histone deacetylase 1 [1]
  Ki: 11.2 µM

## CC1(C)NC(=O)[C@H](CCCCCC(=O)[C@H](O)CO)NC(=O)[C@H]2CCCN2C(=O)[C@H](Cc2ccccc2)NC1=O (stereo in doubt; form 2)
Histone deacetylase 1 [1]
  Ki: 15.8 µM

## C[C@@H](O)C(=O)CCCCC[C@@H]1NC(=O)[C@H]2CCCN2C(=O)[C@H](Cc2ccccc2)NC(=O)C(C)(C)NC1=O
Histone deacetylase 1 [2]
  IC50: 30 nM

## C[C@H](O)C(=O)CCCCC[C@@H]1NC(=O)[C@H]2CCCN2C(=O)[C@H](Cc2ccccc2)NC(=O)C(C)(C)NC1=O
Histone deacetylase 1 [2]
  IC50: 330 nM

## CC1(C)NC(=O)[C@H](CCCCCC(=O)[C@@H](O)CO)NC(=O)[C@H]2CCCN2C(=O)[C@H](Cc2ccccc2)NC1=O (stereo in doubt; form 2)
Histone deacetylase 1 [1]
  Ki: 22.1 µM

## CC1(C)NC(=O)[C@H](CCCCCC(=O)[C@@H]2CO2)NC(=O)[C@H]2CCCN2C(=O)[C@H](Cc2ccccc2)NC1=O
Histone deacetylase 1 [2]
  IC50: 0.15 nM
[3]
  IC50: 1.1 µM
Histone deacetylase 1 [6]
  IC50: 1100 nM

## CC[C@]1(C)NC(=O)[C@H](CCCCCC(=O)[C@@H](C)O)NC(=O)[C@H]2CCCN2C(=O)[C@H](Cc2ccc(O)cc2)NC1=O
Histone deacetylase 1 [6]
  IC50: 21.5 nM
